Experimental findings from article PMC12067145 (ACS Medicinal Chemistry Letters, 2025) are described below.

Some results are limits rather than exact numbers.

The nature of data set [1]: Aqueous solubility. The data set is classed as physicochemical.
Data set [2] can be described thus: Rat IV:PBL PK cassette study / in vivo rat clearance. The conditions noted are these: male, Sprague-Dawley, 0.2 mg/kg.
The nature of data set [3]: Liver microsome intrinsic clearance (mouse). The data set is classed as in vitro ADME. The following applies: pH 7.4; mouse liver microsomes; read-out: LMS CLINT mouse. The procedure:
After a 5 min preincubation, the reaction was initiated by the addition of NADPH (1 mM). At selected time intervals between 0 ~ 60 min (e.g. 0, 3, 7, 15, 25, 45 and/or 60 min), aliquots were taken and subsequently placed into a 96-well plate containing cold acetonitrile with an internal standard (50 ng/mL carbamazepine). Plates were then centrifuged at 3000 rcf (4 °C) for 10 min, and the supernatant was transferred to a separate 96-well plate and diluted 1:1 with water for LC/MS/MS analysis. The in vitro half-life (T 1/2, min, Eq. 1), intrinsic clearance (CLint, mL/min/kg, Eq. 2), and subsequent predicted hepatic clearance (CLhep, mL/min/kg, Eq. 3) were determined employing the following equations: […]
where k represents the slope from linear regression analysis of the natural log percent remaining of a test compound as a function of incubation time […]
(2) CLint = in vitroT1/2 x mg microsomes x gram liver x kg body wt ascale-up factors: of 20 (human) or 45 (rat) or 87.5 (mouse) […]
where Qh (hepatic blood flow, mL/min/kg) is 21 (human) or 70 (rat) or 90 (mouse).
LC/MS/MS Bioanalysis of Samples from Plasma Protein Binding and Intrinsic Clearance […]
Samples were analyzed on a Thermo Electron TSQ Quantum Ultra triple quad mass spectrometer (San Jose, CA) via electrospray ionization (ESI) with two Themo Electron Accella pumps (San Jose, CA), and a Leap Technologies CTC PAL autosampler (Carrboro, NC). Analytes were separated by gradient elution on a dual column system with two Thermo Hypersil Gold (2.1 x 30 mm, 1.9 µm) columns (San Jose, CA) thermostated at 40 °C. HPLC mobile phase A was 0.1% formic acid in water and mobile phase B was 0.1% formic acid in acetonitrile. The gradient started […]
for 0.2 min; returned to 10% B in 0.1 min. The total run time was 1.3 min and the HPLC flow rate was 0.8 mL/min. While pump 1 ran the gradient method, pump 2 equilibrated the alternate column isocratically at 10% B. Compound optimization, data collection, and processing were performed using Thermo Electron's QuickQuan software (v2.3) and Xcalibur (v2.0.7 SP1). […]

Data set [4] in a line: Brain homogenate binding (rat). The data set is classed as in vitro ADME. The procedure:
0.3% DMSO - ΔRatio of 1 µM control compound)x100
In vitro Plasma protein binding and Brain homogenate binding: Determination of fraction unbound (f u) in plasma was conducted in vitro via equilibrium dialysis using HTDialysis (HTD) membrane plates. The top half of the plate was filled with 100 uL of Dubelco’s Phosphate Buffered Saline, pH 7.4 (DPBS). Compounds were diluted into plasma from each species (5 µM final concentration), which was aliquoted in triplicate to the ‘bottom half’ of the prepared HTD plate wells. The HTD plate was sealed and incubated for 6 hours at 37 °C. […]
The unbound fraction (f u) was calculated following the equation below, and mean values for each species were calculated from 3 replicates. […] Fraction unbound for both plasma and brain samples was determined using Equation 4. […]
The diluted fraction unbound (fu2) in brain was calculated in the same manner by using brain homogenate rather than plasma. Undiluted fraction unbound for the brain was calculated using […]
were incubated in 100 mM potassium phosphate pH 7.4 buffer with 3 mM MgCl2 at 37 °C with constant shaking. […] The in vitro half-life (T 1/2, min, Eq. 1), intrinsic clearance (CLint, mL/min/kg, Eq. 2), and subsequent predicted hepatic clearance (CLhep, mL/min/kg, Eq. 3) were determined employing the following equations: […]

Data set [5] has as its system Purinergic P2X. Briefly: Eurofins lead profiling screen (radioligand binding). More on the design: species or system Rat.
Data set [6] has as its target Transporter, Dopamine (DAT) (Homo sapiens, UniProt Q01959). The description is as above.
For data set [7], the target named is Serotonin (5-HT2B) (Homo sapiens, UniProt P41595). Described as above.
The target of data set [8] is Transporter, GABA (Rattus norvegicus, UniProt P23978). Described as above.
Data set [9] concerns the target hERG potassium channel (Homo sapiens, UniProt Q12809). The data set is described as above.
Data set [10] deals with Calcium Channel L-Type, Dihydropyridine (Rattus norvegicus, UniProt P22002). Described as above.
Data set [11] concerns the target Opiate δ1 (OP1, DOP) (Homo sapiens, UniProt P41143). The data set is described as above.

hERG potassium channel, sequence (Q12809 whole entry): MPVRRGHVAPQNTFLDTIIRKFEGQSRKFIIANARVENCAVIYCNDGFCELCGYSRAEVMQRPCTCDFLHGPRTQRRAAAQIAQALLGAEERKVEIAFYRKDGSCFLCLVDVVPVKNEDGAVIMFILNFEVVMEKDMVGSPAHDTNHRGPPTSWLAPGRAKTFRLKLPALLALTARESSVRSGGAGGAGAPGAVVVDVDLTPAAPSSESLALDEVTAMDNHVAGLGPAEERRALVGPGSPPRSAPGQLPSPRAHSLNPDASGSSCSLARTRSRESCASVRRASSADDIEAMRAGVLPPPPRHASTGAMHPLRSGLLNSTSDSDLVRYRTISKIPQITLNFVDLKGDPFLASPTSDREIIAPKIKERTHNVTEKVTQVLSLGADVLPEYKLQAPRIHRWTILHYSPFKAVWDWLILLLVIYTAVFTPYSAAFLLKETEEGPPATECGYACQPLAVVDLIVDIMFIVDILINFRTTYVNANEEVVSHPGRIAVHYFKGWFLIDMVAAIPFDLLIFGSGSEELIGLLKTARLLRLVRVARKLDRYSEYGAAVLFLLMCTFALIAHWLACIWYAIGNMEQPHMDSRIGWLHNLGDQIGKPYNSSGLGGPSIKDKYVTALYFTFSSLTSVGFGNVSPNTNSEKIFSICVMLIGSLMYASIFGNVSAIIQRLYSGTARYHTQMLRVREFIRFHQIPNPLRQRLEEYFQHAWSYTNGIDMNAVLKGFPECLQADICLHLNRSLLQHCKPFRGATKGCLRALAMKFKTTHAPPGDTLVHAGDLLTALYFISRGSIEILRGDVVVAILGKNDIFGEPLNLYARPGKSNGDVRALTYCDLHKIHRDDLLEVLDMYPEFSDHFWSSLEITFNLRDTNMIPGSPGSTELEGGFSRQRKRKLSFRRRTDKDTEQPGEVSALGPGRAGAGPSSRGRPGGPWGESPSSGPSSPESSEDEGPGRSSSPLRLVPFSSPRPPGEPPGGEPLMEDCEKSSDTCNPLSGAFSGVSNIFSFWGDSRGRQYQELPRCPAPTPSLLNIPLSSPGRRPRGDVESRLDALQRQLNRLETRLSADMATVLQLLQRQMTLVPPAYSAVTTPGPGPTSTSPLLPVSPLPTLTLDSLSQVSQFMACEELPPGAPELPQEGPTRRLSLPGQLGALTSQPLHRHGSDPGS
Calcium Channel L-Type, Dihydropyridine, sequence (P22002 whole entry): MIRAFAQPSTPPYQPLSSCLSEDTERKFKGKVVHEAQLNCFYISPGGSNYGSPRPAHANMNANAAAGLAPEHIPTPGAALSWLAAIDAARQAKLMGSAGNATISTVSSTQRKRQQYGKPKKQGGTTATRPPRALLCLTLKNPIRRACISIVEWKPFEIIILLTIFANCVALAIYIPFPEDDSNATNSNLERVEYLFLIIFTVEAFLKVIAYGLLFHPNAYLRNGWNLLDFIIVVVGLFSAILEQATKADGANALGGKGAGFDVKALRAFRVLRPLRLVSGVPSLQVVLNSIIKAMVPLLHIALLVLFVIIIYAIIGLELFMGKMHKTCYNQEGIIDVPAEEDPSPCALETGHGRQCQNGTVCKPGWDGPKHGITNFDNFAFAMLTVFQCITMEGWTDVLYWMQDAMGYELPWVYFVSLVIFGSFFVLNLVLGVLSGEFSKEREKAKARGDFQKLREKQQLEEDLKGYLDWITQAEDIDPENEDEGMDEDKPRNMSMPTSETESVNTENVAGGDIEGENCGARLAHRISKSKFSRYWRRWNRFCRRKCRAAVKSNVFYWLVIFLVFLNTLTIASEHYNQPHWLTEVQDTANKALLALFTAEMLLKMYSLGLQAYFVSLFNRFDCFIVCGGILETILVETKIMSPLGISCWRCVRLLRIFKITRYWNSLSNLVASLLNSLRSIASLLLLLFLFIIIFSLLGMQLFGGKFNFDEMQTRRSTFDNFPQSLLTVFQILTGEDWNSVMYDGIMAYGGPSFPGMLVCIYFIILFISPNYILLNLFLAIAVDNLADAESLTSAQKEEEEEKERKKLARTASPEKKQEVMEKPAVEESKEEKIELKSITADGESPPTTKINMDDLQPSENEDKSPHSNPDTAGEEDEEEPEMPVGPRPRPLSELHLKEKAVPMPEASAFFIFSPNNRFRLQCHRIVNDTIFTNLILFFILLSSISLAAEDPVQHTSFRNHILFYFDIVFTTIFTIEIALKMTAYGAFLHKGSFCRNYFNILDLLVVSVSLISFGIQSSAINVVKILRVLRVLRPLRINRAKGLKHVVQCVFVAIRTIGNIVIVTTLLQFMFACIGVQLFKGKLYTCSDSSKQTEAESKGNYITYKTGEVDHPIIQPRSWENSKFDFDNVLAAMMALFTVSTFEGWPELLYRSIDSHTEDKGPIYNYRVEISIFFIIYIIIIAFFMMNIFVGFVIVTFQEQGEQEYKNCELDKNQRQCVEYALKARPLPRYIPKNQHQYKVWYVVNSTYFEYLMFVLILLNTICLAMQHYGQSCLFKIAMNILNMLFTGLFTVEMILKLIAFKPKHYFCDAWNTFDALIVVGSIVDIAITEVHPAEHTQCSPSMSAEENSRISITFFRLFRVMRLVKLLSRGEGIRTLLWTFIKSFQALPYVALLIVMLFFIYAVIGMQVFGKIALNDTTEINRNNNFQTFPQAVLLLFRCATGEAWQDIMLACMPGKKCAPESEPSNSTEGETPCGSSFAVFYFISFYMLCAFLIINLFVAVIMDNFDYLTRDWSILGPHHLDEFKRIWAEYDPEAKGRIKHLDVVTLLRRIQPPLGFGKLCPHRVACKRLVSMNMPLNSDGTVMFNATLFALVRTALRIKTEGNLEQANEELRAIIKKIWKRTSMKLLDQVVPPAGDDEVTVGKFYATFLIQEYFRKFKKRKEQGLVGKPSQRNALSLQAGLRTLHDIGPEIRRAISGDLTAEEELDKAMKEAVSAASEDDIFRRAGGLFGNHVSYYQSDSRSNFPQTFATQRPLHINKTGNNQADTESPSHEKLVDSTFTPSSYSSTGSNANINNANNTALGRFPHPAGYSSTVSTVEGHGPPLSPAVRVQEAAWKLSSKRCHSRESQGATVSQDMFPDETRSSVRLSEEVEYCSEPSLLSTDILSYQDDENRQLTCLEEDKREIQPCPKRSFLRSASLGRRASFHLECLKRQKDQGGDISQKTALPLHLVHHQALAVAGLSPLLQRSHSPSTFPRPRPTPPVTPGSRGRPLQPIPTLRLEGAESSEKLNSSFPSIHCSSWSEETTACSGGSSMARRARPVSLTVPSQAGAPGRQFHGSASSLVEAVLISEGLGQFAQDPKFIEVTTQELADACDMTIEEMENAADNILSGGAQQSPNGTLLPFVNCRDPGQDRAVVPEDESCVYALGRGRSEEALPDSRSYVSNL
Transporter, Dopamine (DAT), sequence (Q01959 whole entry): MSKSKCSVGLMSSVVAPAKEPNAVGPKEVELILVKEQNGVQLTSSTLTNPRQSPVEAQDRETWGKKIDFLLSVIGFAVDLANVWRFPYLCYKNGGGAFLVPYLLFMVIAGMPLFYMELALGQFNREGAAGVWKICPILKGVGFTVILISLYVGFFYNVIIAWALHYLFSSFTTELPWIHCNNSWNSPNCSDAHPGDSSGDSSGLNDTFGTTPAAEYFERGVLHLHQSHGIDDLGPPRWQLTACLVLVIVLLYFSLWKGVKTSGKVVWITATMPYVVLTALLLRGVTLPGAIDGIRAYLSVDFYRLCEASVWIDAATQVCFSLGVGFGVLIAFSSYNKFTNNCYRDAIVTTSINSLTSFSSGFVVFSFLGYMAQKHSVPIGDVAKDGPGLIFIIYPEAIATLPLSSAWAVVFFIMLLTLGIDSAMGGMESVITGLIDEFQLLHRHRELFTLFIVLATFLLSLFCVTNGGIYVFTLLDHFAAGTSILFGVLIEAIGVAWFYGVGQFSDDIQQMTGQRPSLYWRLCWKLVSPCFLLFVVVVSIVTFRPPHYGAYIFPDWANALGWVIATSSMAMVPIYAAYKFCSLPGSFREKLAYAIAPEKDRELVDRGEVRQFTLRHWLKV
Opiate δ1 (OP1, DOP), sequence (P41143 whole entry): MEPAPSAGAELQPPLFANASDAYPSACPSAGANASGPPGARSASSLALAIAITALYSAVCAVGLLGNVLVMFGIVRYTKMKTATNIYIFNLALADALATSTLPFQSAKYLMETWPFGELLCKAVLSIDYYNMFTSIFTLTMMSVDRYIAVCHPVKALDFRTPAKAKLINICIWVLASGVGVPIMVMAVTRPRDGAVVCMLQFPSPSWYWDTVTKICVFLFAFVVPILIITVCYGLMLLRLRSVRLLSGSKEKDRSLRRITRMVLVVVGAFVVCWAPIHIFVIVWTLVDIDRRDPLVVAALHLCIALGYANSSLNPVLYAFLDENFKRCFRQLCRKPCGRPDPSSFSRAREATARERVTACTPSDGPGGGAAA

In data set [1], `Cc1cc(C#Cc2ccc(F)cc2)cnc1NC(=O)c1cc(NC(=O)OC(C)(C)C)ccc1Cl` [Compound 14c] came in with a solubility below 5 µM. In addition, the clearance at 24 h in [2] (iv, in vivo rat plasma clearance, read-out: rat CLp) was determined as 21.2 mL/min/kg. Also, in [2] (plasma, rat IV:PBL PK cassette), the half-life at 24 h was 6.78 h. The Vd at 24 h in data set [2] (plasma, rat IV:PBL PK cassette, read-out: volume of distribution) stood at 6.7 L/kg. Further, the CLint scaled at 1 µM in [3] was found to be 13 mL/min/kg. For the same compound, the “brain homogenate binding rat” value in data set [4] is listed as above 99.9%.
With `O=C(NCc1ccc(OC(F)(F)F)cc1F)c1ccc2ncnn2c1` [ONO-2920632], in [5], the “% Inhibition at 10 µM” value turned out to be 1%. The inhibition at 10 µM in [6] is 23%; in data set [7], 31%; in data set [8], 19%; in [9] it was 39%; in data set [10] it was 76%; in data set [11], -8%.
